Measured values as given in EP0563112B1, “ENHANCED BIOAVAILABILITY PHARMACEUTICAL COMPOSITION CONTAINING PROBUCOL” (MERRELL DOW PHARMACEUTICALS INC., priority 1990, dated 1992).

Tests used:
[1] = Solubility determination of probucol in oils and binary solvent systems (HPLC assay); format: physicochemical
Source text: Captex® 200 is a propylene glycol ester of caprylic (C₈) and capric (C₁₀) fatty acids obtained by fractionation of certain coconut oil fatty acids and is known generically as propylene glycol dicaprylate/dicaprate. Captex® 300 is a caprylic and capric acid triglyceride obtained by fractionation and subsequent esterification of coconut oil and is known generically as caprylic/capric triglyceride. Capmul® MCM is a mono and diglyceride of caprylic and capric acids.
Eight grams of each oil were transferred into a glass tube with a teflon liner screw cap, and 2.5 g of probucol were added to each tube. The tubes were capped and shaken by hand until the probucol particles were wetted. The tubes were then rotated for at least 48 hours on a test tube rotating apparatus. The solubility of probucol was determined using a high performance liquid chromatography (HPLC) assay procedure.
In order to determine if the solubility of probucol could be enhanced by incorporating absolute ethanol in the oil, three binary systems: safflower oil:ethanol (90:10), polyethylene glycol (PEG) 400:ethanol (90:10, 80:20, 70:30), and Captex® 200:ethanol (95:5, 90:10, 85:15, 80:20, and 75:25) were evaluated. The solubility data shown in Table II indicate that in each case the solubility of probucol increased in the presence of ethanol.

[2] = Heeg and Tachizawa 1980; cited from earlier work

Solubility (%w/v) ([1]; Captex® 200:Ethanol 75:25): 26.0 %w/v
Solubility (%w/v) ([1]; Captex® 200:Ethanol 80:20): 26.0 %w/v
Solubility (%w/v) ([1]; Captex® 200:Ethanol 85:15): 25.0 %w/v
Solubility (%w/v) ([1]; Captex® 200:Ethanol 90:10): 24.0 %w/v
Solubility (%w/v) ([1]; Captex® 200:Ethanol 95:5): 23.0 %w/v
Solubility (%w/v) ([1]; PEG 400 100:00): 2.8 %w/v
Solubility (%w/v) ([1]; PEG 400:Ethanol 80:20): 9.5 %w/v
Solubility (%w/v) ([1]; PEG 400:Ethanol 90:10): 5.8 %w/v
Solubility (%w/v) ([1]; PEG 400 Ethanol 70:30): 13.1 %w/v
Solubility (%w/v) ([1]; Safflower Oil:Ethanol 90:10): 11.5 %w/v
Solubility (%w/v) ([1]; in Capmul® MCM): 6.3 % w/v
Solubility (%w/v) ([1]; in Captex® 200): 18.2 % w/v
Solubility (%w/v) ([1]; in Captex® 300): 12.5 % w/v
Solubility (%w/v) ([1]; in Corn oil): 5.8 % w/v
Solubility (%w/v) ([1]; in Olive oil): 5.5 % w/v
Solubility (%w/v) ([1]; in Peanut oil): 5.6 % w/v
Solubility (%w/v) ([1]; in Safflower oil): 5.9 % w/v
Solubility (%w/v) ([1]; in Sunflower oil): 5.8 % w/v
Solubility (%w/v) ([1]; in Vegetable oil): 5.8 % w/v
Structure (SMILES): CC(C)(Sc1cc(C(C)(C)C)c(O)c(C(C)(C)C)c1)Sc1cc(C(C)(C)C)c(O)c(C(C)(C)C)c1 [probucol, 2,2'-bis (3,5-di-tertiarybutyl-4-hydroxyphenylthio)propane]
bioavailability of probucol from tablet dosage form [2]: 2-8%
